Where a name gives a salt, the structure may show the parent alone.
Tests used:
[1] = tested on: established mechanical hyperalgesia; test: Chronic neuropathic pain model (Seltzer, partial ligation of the sciatic nerve), paw withdrawal threshold; format: in vivo, Wistar rats; details: mean ± s.e.m.
Description: Hyperalgesia is examined in the model of neuropathic pain induced by partial ligation of the sciatic nerve as described by Seltzer et al. (1990). Briefly, Wistar rats (120-140 g) are anaesthetised, the left sciatic nerve exposed at mid-thigh level through a small incision and ⅓ to ½ of the nerve thickness tightly ligated within a 7.0 silk suture. The wound is closed with a single muscle suture and skin clips and dusted with Aureomycin antibiotic powder. The animals are allowed to recover and used 12-15 days following surgery. Mechanical hyperalgesia is assessed by measuring paw withdrawal thresholds to an increasing pressure stimulus placed onto the dorsal surface of the paw using an analgesy-meter (Ugo-Basile, Milan) with a cut-off of 250 g. Withdrawal thresholds are measured on both the ipsilateral (ligated) and contralateral (unligated) paw prior to (predose) and then up to 6 h following drug or vehicle administration. Data are expressed as withdrawal threshold (g) and percentage reversal of hyperalgesia calculated according to the following formula: [formula]
Potency is expressed as D50 value, i.e. the dose of the single compound or a COMBINATION OF THE INVENTION necessary to produce 50% reversal of hyperalgesia.
Paw withdrawal thresholds are measured prior to drug treatment (predose) and then at 0.5, 1, 3 and 6 hours following concomitant administration of morphine subcutaneously and the cathepsin inhibitor of formula II orally. Each time point represents data from 6 animals per group. Vehicle is 0.5% methylcellulose, 1 ml p.o./0.9% saline s.c. Statistical analysis is performed on raw data (paw withdrawal thresholds).
Statistical significance, *† P<0.05 by Analysis of variance followed by Dunnett's test.

[2] = tested on: neuropathic rat nociceptive threshold; test: Naloxone blockade of anti-hyperalgesic effect in neuropathic rats; format: in vivo

Structure (SMILES): CC(C)(C)CCn1c(Cc2ccc(Cl)cc2)cc2cnc(C#N)nc21 [Inhibitor]
- % Reversal of Predose Hyperalgesia ([1]; Inhibitor 10 mg/kg p.o., 0.5 h post-dose): 30.3 ± 5.8%
- % Reversal of Predose Hyperalgesia ([1]; Inhibitor 10 mg/kg p.o., 1 h post-dose): 22.8 ± 4.6%
- % Reversal of Predose Hyperalgesia ([1]; Inhibitor 30 mg/kg, 0.5 h post-dose): 46.7 ± 11.4%
- % Reversal of Predose Hyperalgesia ([1]; Inhibitor 30 mg/kg, 1 h post-dose): 54.7 ± 7.1%

Structure (SMILES): CN1CC[C@]23c4c5ccc(O)c4O[C@H]2[C@@H](O)C=C[C@H]3[C@H]1C5 [Morphine, morphine]
- % Reversal of Predose Hyperalgesia ([1]; Morphine 1 mg/kg s.c., 0.5 h post-dose): 4.4 ± 2.8%
- % Reversal of Predose Hyperalgesia ([1]; Morphine 1 mg/kg s.c., 1 h post-dose): 6.5 ± 2.9%

Structure (SMILES): C=CCN1CC[C@]23c4c5ccc(O)c4O[C@H]2C(=O)CC[C@@]3(O)[C@H]1C5 [Naloxone hydrochloride]
- effect on neuropathic rat nociceptive threshold ([2]; naloxone alone, 0.1 mg/kg): devoid of any effect
- effect on the anti-hyperalgesic effect induced by the compound of formula II ([2]; neuropathic rats, naloxone 0.1 mg/kg): blocks the anti-hyperalgesic effect
